Some results are limits rather than exact numbers.

For this assay, the target named is HIF-PH2 (EGLN1) (Homo sapiens (Human), UniProt Q9GZT9). As to the kind of experiment: HIF-PH assay (14CO2 capture, peptide-dependent turnover). It is filed as biochemical. To be noted: enzyme inhibition against HIF-PH2; peptide-dependent percent turnover. An excerpt:
Ketoglutaric acid α-[1-^14C]-sodium salt, alpha-ketoglutaric acid sodium salt, and HPLC purified peptide may be obtained from commercial sources, e.g., Perkin-Elmer (Wellesley Mass.), Sigma-Aldrich, and SynPep Corp. (Dublin Calif.), respectively. […] For example, a HIF peptide for use in the HIF-PH assay is [methoxycoumarin]-[…]-amide. HIF-PH, e.g., HIF-PH2 (EGLN1), can be expressed in, e.g., insect Hi5 cells, and partially purified, e.g., through a SP ion exchange chromatography column. […] Reactions are initiated by addition of HIF-PH enzyme.
The peptide-dependent percent turnover is calculated by subtracting percent turnover in the absence of peptide from percent turnover in the presence of substrate peptide. Percent inhibition and IC50 are calculated using peptide-dependent percent turnover at given inhibitor concentrations. Calculation of IC50 values for each inhibitor is conducted using GraFit software (Erithacus Software Ltd., Surrey UK).
Representative compounds of the disclosure were analyzed using the HIF-PH assay described above.

HIF-PH2 (EGLN1), sequence (Q9GZT9 whole entry): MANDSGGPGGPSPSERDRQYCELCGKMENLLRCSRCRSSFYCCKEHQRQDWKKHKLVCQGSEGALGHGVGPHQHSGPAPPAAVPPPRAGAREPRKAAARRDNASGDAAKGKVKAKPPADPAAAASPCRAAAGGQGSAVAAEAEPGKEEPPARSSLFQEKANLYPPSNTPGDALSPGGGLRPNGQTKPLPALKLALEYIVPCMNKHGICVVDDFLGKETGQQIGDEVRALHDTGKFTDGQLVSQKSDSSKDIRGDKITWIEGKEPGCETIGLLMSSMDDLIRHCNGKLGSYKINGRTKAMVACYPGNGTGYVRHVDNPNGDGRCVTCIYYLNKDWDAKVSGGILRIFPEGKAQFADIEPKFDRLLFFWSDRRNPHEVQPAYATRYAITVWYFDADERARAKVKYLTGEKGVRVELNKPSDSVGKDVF

The term IC50 denotes the midpoint of a concentration-inhibition curve. Read a high IC50 as weaker potency. Consider `CNC(=O)c1nc(C#N)c2ccc(=O)n(Cc3ccccc3)c2c1O` [Example 79, 1-Benzyl-5-cyano-8-hydroxy-2-oxo-1,2-dihydro-[1,6]naphthyridine-7-carboxylic acid methylamide], for which the IC50 is > 200 µM.

In turn, `O=C(O)CCNC(=O)c1ncc2ccn(Cc3ccccc3)c(=O)c2c1O` [Example 54, 3-[(6-Benzyl-4-hydroxy-5-oxo-5,6-dihydro-[2,6]naphthyridine-3-carbonyl)-amino]-propionic acid] had an IC50 of 181 µM. Then `N#Cc1nc(C(=O)NCc2ccnnc2)c(O)c2ccn(Cc3ccccc3)c(=O)c12` [Example 60, 7-Benzyl-1-cyano-4-hydroxy-8-oxo-7,8-dihydro-[2,7]naphthyridine-3-carboxylic acid (pyridazin-4-ylmethyl)-amide], with 177 µM; and `N#Cc1nc(C(=O)NCCCCC(=O)O)c(O)c2cc(-c3ccccc3)c(=O)n(Cc3ccccc3)c12` [Example 24, 5-[(1-Benzyl-8-cyano-5-hydroxy-2-oxo-3-phenyl-1,2-dihydro-[1,7]naphthyridine-6-carbonyl)-amino]-pentanoic acid], with > 200 µM.

In the case of `N#Cc1nc(C(=O)N[C@@H](Cc2ccccc2)C(=O)O)c(O)c2ccn(Cc3ccccc3)c(=O)c12` [Example 56, (S)-2-[(7-Benzyl-1-cyano-4-hydroxy-8-oxo-7,8-dihydro-[2,7]naphthyridine-3-carbonyl)-amino]-3-phenyl-propionic acid], the IC50 was > 200 µM. Under `CC(=O)NCCNC(=O)c1ncc2ccc(=O)n(Cc3ccccc3)c2c1O` [Example 96, 1-Benzyl-8-hydroxy-2-oxo-1,2-dihydro-[1,6]naphthyridine-7-carboxylic acid (2-acetylamino-ethyl)-amide] stands 137 µM.

In turn, `O=C(N[C@H](Cc1ccccc1)C(=O)O)c1ncc2c(cc(-c3ccccc3)c(=O)n2Cc2ccccc2)c1O` [Example 152, (R)-2-[(1-Benzyl-5-hydroxy-2-oxo-3-phenyl-1,2-dihydro-[1,7]naphthyridine-6-carbonyl)-amino]-3-phenyl-propionic acid] gave an IC50 of 103 µM. Then `O=C(O)CCNC(=O)c1ncc2ccc(=O)n(Cc3ccccc3)c2c1O` [Example 70, 3-[(1-Benzyl-8-hydroxy-2-oxo-1,2-dihydro-[1,6]naphthyridine-7-carbonyl)-amino]-propionic acid], with 167 µM; and `Cc1ncccc1-c1nc(C(=O)NCCC(=O)O)c(O)c2cc(-c3ccccc3)c(=O)n(Cc3ccccc3)c12` [Example 178, 3-{[1-Benzyl-5-hydroxy-8-(2-methyl-pyridin-3-yl)-2-oxo-3-phenyl-1,2-dihydro-[1,7]naphthyridine-6-carbonyl]-amino}-propionic acid], with 199 µM; and `CN(CCNC(=O)c1ncc2ccc(=O)n(Cc3ccccc3)c2c1O)S(C)(=O)=O` [Example 105, 1-Benzyl-8-hydroxy-2-oxo-1,2-dihydro-[1,6]naphthyridine-7-carboxylic acid [2-(methanesulfonyl-methyl-amino)-ethyl]amide], with > 200 µM. Then `CNC(=O)c1nc(C#N)c2c(=O)n(Cc3ccccc3)ccc2c1O` [Example 38, 7-Benzyl-1-cyano-4-hydroxy-8-oxo-7,8-dihydro-[2,7]naphthyridine-3-carboxylic acid methylamide], with > 200 µM. As for `CCCNC(=O)CCCNC(=O)c1nc(C#N)c2c(=O)n(Cc3ccccc3)ccc2c1O` [Example 73, 7-Benzyl-1-cyano-4-hydroxy-8-oxo-7,8-dihydro-[2,7]naphthyridine-3-carboxylic acid (3-propylcarbamoyl-propyl)-amide], the IC50 is > 200 µM. Compound `CN(CCNC(=O)c1nc(-c2ccccc2)c2c(cc(-c3ccccc3)c(=O)n2Cc2ccccc2)c1O)S(C)(=O)=O` [Example 133, 1-Benzyl-5-hydroxy-2-oxo-3,8-diphenyl-1,2-dihydro-[1,7]naphthyridine-6-carboxylic acid [2-(methanesulfonyl-methyl-amino)-ethyl]amide] registered an IC50 of 200 µM. In the case of `COc1ccc(Cn2ccc3c(O)c(C(=O)NCc4ccc(F)cc4)ncc3c2=O)c(OC)c1` [Example 78, 7-(2,4-Dimethoxy-benzyl)-4-hydroxy-8-oxo-7,8-dihydro-[2,7]naphthyridine-3-carboxylic acid 4-fluoro-benzylamide], the IC50 was > 200 µM.

In the case of `CCNC(=O)NCCNC(=O)c1ncc2c(cc(-c3ccccc3)c(=O)n2Cc2ccccc2)c1O` [Example 110, 1-Benzyl-5-hydroxy-2-oxo-3-phenyl-1,2-dihydro-[1,7]naphthyridine-6-carboxylic acid [2-(3-ethyl-ureido)-ethyl]-amide], the IC50 amounted to 200 µM. Take `O=C(O)CCNC(=O)c1nc(-c2cccnc2)c2c(=O)n(Cc3ccccc3)ccc2c1O` [Example 206, 3-[(7-Benzyl-4-hydroxy-8-oxo-1-pyridin-3-yl-7,8-dihydro-[2,7]naphthyridine-3-carbonyl)-amino]-propionic acid]: the IC50 turned out to be 200 µM. Under `N#Cc1nc(C(=O)NCCS(N)(=O)=O)c(O)c2c1ccc(=O)n2Cc1ccccc1` [Example 106, 1-Benzyl-5-cyano-8-hydroxy-2-oxo-1,2-dihydro-[1,6]naphthyridine-7-carboxylic acid (2-sulfamoyl-ethyl)-amide] stands > 200 µM; under `C[C@H](c1ccccc1)n1c(=O)c(-c2ccccc2)cc2c(O)c(C(=O)NCCC(=O)O)nc(-c3cccnc3)c21` [Example 176, (R)-3-{[5-Hydroxy-2-oxo-3-phenyl-1-(1-phenyl-ethyl)-8-pyridin-3-yl-1,2-dihydro-[1,7]naphthyridine-6-carbonyl]-amino}-propionic acid], 196 µM; under `O=C(O)CCNC(=O)c1nc(-c2nccs2)c2c(cc(-c3ccccc3)c(=O)n2Cc2ccccc2)c1O` [Example 195, 3-[(1-Benzyl-5-hydroxy-2-oxo-3-phenyl-8-thiazol-2-yl-1,2-dihydro-[1,7]naphthyridine-6-carbonyl)-amino]-propionic acid], 138 µM.

For the compound `CS(=O)(=O)NCCNC(=O)c1ncc2ccc(=O)n(Cc3ccccc3)c2c1O` [Example 111, 1-Benzyl-8-hydroxy-2-oxo-1,2-dihydro-[1,6]naphthyridine-7-carboxylic acid (2-methanesulfonylamino-ethyl)-amide], the IC50 is > 200 µM. Under `O=C(O)CCCCNC(=O)c1nc(-c2cccnc2)c2c(cc(-c3ccccc3)c(=O)n2Cc2ccccc2)c1O` [Example 163, 5-[(1-Benzyl-5-hydroxy-2-oxo-3-phenyl-8-pyridin-3-yl-1,2-dihydro-[1,7]naphthyridine-6-carbonyl)-amino]-pentanoic acid] stands 200 µM; under `CN(CCNC(=O)c1nc(-c2cccnc2)c2c(cc(-c3ccccc3)c(=O)n2Cc2ccccc2)c1O)S(C)(=O)=O` [Example 134, 1-Benzyl-5-hydroxy-2-oxo-3-phenyl-8-pyridin-3-yl-1,2-dihydro-[1,7]naphthyridine-6-carboxylic acid [2-(methanesulfonyl-methyl-amino)-ethyl]amide], 200 µM. Under `CC(C)(CNC(=O)c1ncc2ccc(=O)n(Cc3ccccc3)c2c1O)C(=O)O` [Example 71, 3-[(1-Benzyl-8-hydroxy-2-oxo-1,2-dihydro-[1,6]naphthyridine-7-carbonyl)-amino]-2,2-dimethyl-propionic acid] stands > 200 µM; under `CC(C)(CNC(=O)c1nc(-c2cccnc2)c2c(cc(-c3ccccc3)c(=O)n2Cc2ccccc2)c1O)C(=O)O` [Example 191, 3-[(1-Benzyl-5-hydroxy-2-oxo-3-phenyl-8-pyridin-3-yl-1,2-dihydro-[1,7]naphthyridine-6-carbonyl)-amino]-2,2-dimethyl-propionic acid], 200 µM. Then `Cc1nc(C(=O)NCCC(=O)O)c(O)c2c1ccc(=O)n2Cc1ccccc1` [Example 112, 3-[(1-Benzyl-8-hydroxy-5-methyl-2-oxo-1,2-dihydro-[1,6]naphthyridine-7-carbonyl)-amino]-propionic acid], with > 200 µM; and `O=C(O)CCNC(=O)c1nc(-c2ccc(C(F)(F)F)nc2)c2c(cc(-c3ccccc3)c(=O)n2Cc2ccccc2)c1O` [Example 180, 3-{[1-Benzyl-5-hydroxy-2-oxo-3-phenyl-8-(6-trifluoromethyl-pyridin-3-yl)-1,2-dihydro-[1,7]naphthyridine-6-carbonyl]-amino}-propionic acid], with 107 µM; and `CNC(=O)c1ncc2ccc(=O)n(Cc3ccccc3)c2c1O` [Example 75, 1-Benzyl-8-hydroxy-2-oxo-1,2-dihydro-[1,6]naphthyridine-7-carboxylic acid methylamide], with > 200 µM.

As to `O=C(NCCNC(=O)C(F)(F)F)c1ncc2c(cc(-c3ccccc3)c(=O)n2Cc2ccccc2)c1O` [Example 109, 1-Benzyl-5-hydroxy-2-oxo-3-phenyl-1,2-dihydro-[1,7]naphthyridine-6-carboxylic acid [2-(2,2,2-trifluoro-acetylamino)-ethyl]-amide], the IC50 is > 200 µM.

`O=C(O)CCNC(=O)c1nc(-c2cccnn2)c2c(cc(-c3ccccc3)c(=O)n2Cc2ccccc2)c1O` [Example 203, 3-[(1-Benzyl-5-hydroxy-2-oxo-3-phenyl-8-pyridazin-3-yl-1,2-dihydro-[1,7]naphthyridine-6-carbonyl)-amino]-propionic acid] showed an IC50 of 200 µM. Consider `O=C(O)CCNC(=O)c1nc(-c2cscn2)c2c(cc(-c3ccccc3)c(=O)n2Cc2ccccc2)c1O` [Example 202, 3-[(1-Benzyl-5-hydroxy-2-oxo-3-phenyl-8-thiazol-4-yl-1,2-dihydro-[1,7]naphthyridine-6-carbonyl)-amino]-propionic acid], for which the IC50 was 200 µM.

The values are drawn from patent publication US8921389B2, “Naphthyridine derivatives as inhibitors of hypoxia inducible factor (HIF) hydroxylase” (Fibrogen, Inc., priority 2011, dated 2014).
